Columns and labels:
Assay type in all cases: in vivo
[1] = tested on: Beet Armyworm (Spodoptera exigua, LAPHEG); test: Bioassays on Beet Armyworm (BAW), 128-well diet tray assay; conditions: Spodoptera exigua; Table ABC: Biological Results; species BAW; read-out: BAW
Summary of the method: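 Eight diet wells per compound were treated at 50 μg/cm^2 (acetone-water 90:10), dried, then infested with 1–5 second-instar larvae each. After five to seven days at 25 °C under 14:10 photoperiod, mortality was scored and averaged across wells.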

[2] = tested on: Cabbage Looper (Trichoplusia ni, TRIPNI); test: Bioassays on Cabbage Looper (CL), 128-well diet tray assay; conditions: Trichoplusia ni; Table ABC: Biological Results; species CL; read-out: CL
Summary of the method: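 Test molecule was dissolved in 90:10 acetone-water, applied to artificial diet at 50 μg/cm^2 and allowed to dry. Second-instar larvae were then added, one to five per well, and trays held at 25° C for five to seven days before mortality was scored and averaged.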

[3] = tested on: Yellow Fever Mosquito (Aedes aegypti, AEDSAE); conditions: Table ABC: Biological Results; species YFM
Summary of the method: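 Compounds from DMSO master plates (4000 ppm stock) diluted in 90:10 water/acetone, then dispensed into six replicate plates and infested with ~1-day-old Aedes aegypti larvae in liver-powder water. Held covered at room temperature for 3 days; each well scored for larval mortality and graded on a rating scale.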

Structure (SMILES) | pest or weed control at 50 µg/cm2 [1] [%] | pest or weed control at 50 µg/cm2 [2] [%] | YFM [3]
C=Cc1cc(NC(=O)c2cc(NC(=O)[C@H]3[C@H](c4cc(Cl)cc(Cl)c4)C3(Cl)Cl)ccc2Cl)cc(F)c1F (relative stereo) [F1317, trans-2-Chloro-5-(2,2-dichloro-3-(3,5-dichlorophenyl)cyclopropane-1-carboxamido)-N-(3,4-difluoro-5-vinylphenyl)benzamide] | 50 to 100 | 50 to 100 | A (80–100)
C=C(F)c1cc(NC(=O)c2cc(NC(=O)[C@H]3[C@H](c4cc(Cl)cc(Cl)c4)C3(Cl)Cl)ccc2Cl)ccc1F (relative stereo) [F1318, trans-2-Chloro-5-(2,2-dichloro-3-(3,5-dichlorophenyl)cyclopropane-1-carboxamido)-N-(4-fluoro-3-(1-fluorovinyl)phenyl)benzamide] | 50 to 100 | 50 to 100 | A (80–100)
C=C(F)c1cc(F)ccc1NC(=O)c1cc(NC(=O)[C@H]2[C@H](c3cc(Cl)cc(Cl)c3)C2(Cl)Cl)ccc1Cl (relative stereo) [F1319, trans-2-Chloro-5-(2,2-dichloro-3-(3,5-dichlorophenyl)cyclopropane-1-carboxamido)-N-(4-fluoro-2-(1-fluorovinyl)phenyl)benzamide] | 50 to 100 | 50 to 100 | A (80–100)
C=C(F)c1ccc(NC(=O)c2cc(NC(=O)[C@H]3[C@H](c4cc(Cl)cc(Cl)c4)C3(Cl)Cl)ccc2Cl)c(F)c1 (relative stereo) [F1320, trans-2-Chloro-5-(2,2-dichloro-3-(3,5-dichlorophenyl)cyclopropane-1-carboxamido)-N-(2-fluoro-4-(1-fluorovinyl)phenyl)benzamide] | 50 to 100 | 50 to 100 | A (80–100)
C=C(F)c1c(F)ccc(NC(=O)c2cc(NC(=O)[C@H]3[C@H](c4cc(Cl)cc(Cl)c4)C3(Cl)Cl)ccc2Cl)c1F (relative stereo) [F1321, trans-2-Chloro-5-(2,2-dichloro-3-(3,5-dichlorophenyl)cyclopropane-1-carboxamido)-N-(2,4-difluoro-3-(1-fluorovinyl)phenyl)benzamide] | 50 to 100 | 50 to 100 | A (80–100)
C=C(F)c1cc(NC(=O)c2cc(NC(=O)[C@H]3[C@H](c4cc(Cl)cc(Cl)c4)C3(Cl)Cl)ccc2Cl)cc(F)c1F (relative stereo) [F1323, trans-2-Chloro-5-(2,2-dichloro-3-(3,5-dichlorophenyl)cyclopropane-1-carboxamido)-N-(3,4-difluoro-5-(1-fluorovinyl)phenyl)benzamide] | 50 to 100 | 50 to 100 | A (80–100)
Cc1cc(NCc2ccc(O)cc2)ccc1NC(=O)c1cc(NC(=O)[C@H]2[C@H](c3cc(Cl)cc(Cl)c3)C2(Cl)Cl)ccc1Cl (relative stereo) [F1353, trans-2-Chloro-5-(2,2-dichloro-3-(3,5-dichlorophenyl)cyclopropane-1-carboxamido)-N-(4-((4-hydroxybenzyl)amino)-2-methylphenyl)benzamide] | 50 to 100 | 50 to 100 | A (80–100)
O=C(Nc1ccc(F)c(NC(=O)C(F)(F)F)c1F)c1cc(NC(=O)[C@H]2[C@H](c3ccc(Cl)c(Br)c3)C2(Cl)Cl)ccc1Cl (relative stereo) [F1358, trans-5-(3-(3-Bromo-4-chlorophenyl)-2,2-dichlorocyclopropane-1-carboxamido)-2-chloro-N-(2,4-difluoro-3-(2,2,2-trifluoroacetamido)phenyl)benzamide] | 50 to 100 | 50 to 100 | A (80–100)
O=C(Nc1ccc(F)c(NC(=O)C(F)F)c1F)c1cc(NC(=O)[C@H]2[C@H](c3ccc(Cl)c(Br)c3)C2(Cl)Cl)ccc1Cl (relative stereo) [F1359, trans-5-(3-(3-Bromo-4-chlorophenyl)-2,2-dichlorocyclopropane-1-carboxamido)-2-chloro-N-(3-(2,2-difluoroacetamido)-2,4-difluorophenyl)benzamide] | 50 to 100 | 50 to 100 | A (80–100)
Nc1cc(NC(=O)c2cc(NC(=O)[C@H]3[C@H](c4ccc(F)c(Cl)c4)C3(Cl)Cl)ccc2Cl)ccc1Cl (relative stereo) [F1365, trans-N-(3-Amino-4-chlorophenyl)-2-chloro-5-(2,2-dichloro-3-(3-chloro-4-fluorophenyl)cyclopropane-1-carboxamido)benzamide] | 50 to 100 | 50 to 100 | A (80–100)
O=C(Nc1cc(Cl)c(NC(=O)C(F)(F)F)c(Cl)c1)c1cc(NC(=O)[C@H]2[C@H](c3ccc(F)c(Cl)c3)C2(Cl)Cl)ccc1Cl (relative stereo) [F1368, trans-2-Chloro-5-(2,2-dichloro-3-(3-chloro-4-fluorophenyl)cyclopropane-1-carboxamido)-N-(3,5-dichloro-4-(2,2,2-trifluoroacetamido)phenyl)benzamide] | 50 to 100 | 50 to 100 | A (80–100)
Nc1ccc(NC(=O)c2cc(NC(=O)[C@H]3[C@H](c4ccc(F)c(Cl)c4)C3(Cl)Cl)ccc2Cl)cc1Cl (relative stereo) [F1370, trans-N-(4-Amino-3-chlorophenyl)-2-chloro-5-(2,2-dichloro-3-(3-chloro-4-fluorophenyl)cyclopropane-1-carboxamido)benzamide] | 50 to 100 | 50 to 100 | A (80–100)
O=C(Nc1ccc(NC(=O)C(F)(F)F)c(Cl)c1)c1cc(NC(=O)[C@H]2[C@H](c3ccc(F)c(Cl)c3)C2(Cl)Cl)ccc1Cl (relative stereo) [F1384, trans-2-Chloro-N-(3-chloro-4-(2,2,2-trifluoroacetamido)phenyl)-5-(2,2-dichloro-3-(3-chloro-4-fluorophenyl)cyclopropane-1-carboxamido)benzamide] | 50 to 100 | 50 to 100 | A (80–100)
N#Cc1cc(NC(=O)c2cc(NC(=O)[C@H]3[C@H](c4ccc(F)c(Cl)c4)C3(Cl)Cl)ccc2Cl)ccc1N (relative stereo) [F1387, trans-N-(4-Amino-3-cyanophenyl)-2-chloro-5-(2,2-dichloro-3-(3-chloro-4-fluorophenyl)cyclopropane-1-carboxamido)benzamide] | 50 to 100 | 50 to 100 | A (80–100)
Nc1ccc(NC(=O)c2cc(NC(=O)[C@H]3[C@H](c4ccc(F)c(Cl)c4)C3(Cl)Cl)ccc2Cl)cc1C(F)(F)F (relative stereo) [F1390, trans-N-(4-Amino-3-(trifluoromethyl)phenyl)-2-chloro-5-(2,2-dichloro-3-(3-chloro-4-fluorophenyl)cyclopropane-1-carboxamido)benzamide] | 50 to 100 | 50 to 100 | A (80–100)
